According to patent publication US11180462B2, “Microbiocidal oxadiazole derivatives” (SYNGENTA PARTICIPATIONS AG, priority 2015, dated 2021):

Columns and labels:
[1] = tested on: Phakopsora Pachyrhizi; test: Fungicidal activity against Phakopsora pachyrhizi / soybean / leaf disc preventative (Asian soybean rust); type: in vivo; settings: foliar, 200 ppm in the applied formulation, soybean leaf disks, compared to untreated control leaf disks, read-out: disease control
In short: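 Preventative soybean leaf-disc test: discs on water agar sprayed with diluted formulated compound, inoculated one day later with spores on the lower surface. Held 24–36 h dark at 20°C, 75% rh, then 12 h light/day; percent disease control versus untreated discs scored 12–14 days after application.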

[2] = tested on: Glomerella lagenarium (Colletotrichum lagenarium); test: Fungicidal activity against Glomerella lagenarium (Colletotrichum lagenarium) liquid culture / cucumber / preventative (anthracnose); type: cell-based; settings: Colletotrichum orbiculare; 20 ppm in the applied formulation; liquid culture (PDB), growth inhibition measured photometrically after 3 to 4 days; compared to untreated control; read-out: disease control
In short: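 Photometric read-out of fungal growth after 2–7 days, expressed as percent antifungal activity versus untreated check. Cryo-stored conidia in PDB; compound at 20 ppm; dark, 24 °C, 96% RH.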

[3] = tested on: Puccinia recondita f. Sp. Tritici; test: Fungicidal activity against Puccinia recondita f. sp. tritici / wheat / leaf disc preventative (brown rust); type: in vivo; settings: foliar, 200 ppm in the applied formulation, wheat leaf segments, preventative, compared to untreated control leaf disks, read-out: disease control
In short: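 Preventative leaf-segment test, wheat cv. Kanzler on water agar. Spray compound at 200 ppm, inoculate with spores 1 day later; 19° C., 75% rh, 12/12 h light. Read-out: % disease control vs untreated, 7 to 9 days after application.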

[4] = tested on: Puccinia recondita f. Sp. Tritici; test: Fungicidal activity against Puccinia recondita f. sp. tritici / wheat / leaf disc curative (brown rust); type: in vivo; settings: foliar, 24 h, 200 ppm in the applied formulation, wheat leaf segments, curative (applied 1 day after inoculation), compared to untreated control leaf disks, read-out: disease control
In short: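 % disease control vs untreated, scored 6–8 d post-application. Wheat cv. Kanzler segments, spore-inoculated, dark 19° C/75% RH; formulated cpd applied 1 d post-inoc; then 19° C, 75% RH, 12 h L/12 h D.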

C=C(C)C(=O)N(Cc1ccc(-c2noc(C(F)(F)F)n2)cc1)C1CC1 [Compound 1.122, N-cyclopropyl-2-methyl-N-[[4-[5-(trifluoromethyl)-1,2,4-oxadiazol-3-yl]phenyl]methyl]prop-2-enamide]
≥ 80%: pest or weed control at 200 ppm [1] | inhibition of growth at 20 ppm [2] | pest or weed control at 200 ppm [3] | pest or weed control at 200 ppm [4]

O=C(N(Cc1ccc(-c2noc(C(F)(F)F)n2)cc1)C1CC1)C1(C(F)(F)F)CCC1 [Compound 1.92, N-cyclopropyl-1-(trifluoromethyl)-N-[[4-[5-(trifluoromethyl)-1,2,4-oxadiazol-3-yl]phenyl]methyl]-cyclobutane-carboxamide]
≥ 80%: pest or weed control at 200 ppm [1] | inhibition of growth at 20 ppm [2] | pest or weed control at 200 ppm [3] | pest or weed control at 200 ppm [4]

CC(C)N(Cc1ccc(-c2noc(C(F)(F)F)n2)cc1)C(=O)C1CC1 [Compound 1.599, N-isopropyl-N-[[4-[5-(trifluoromethyl)-1,2,4-oxadiazol-3-yl]phenyl]methyl]-cyclopropane-carboxamide]
≥ 80%: pest or weed control at 200 ppm [1] | inhibition of growth at 20 ppm [2] | pest or weed control at 200 ppm [3] | pest or weed control at 200 ppm [4]

CC(C)(C)C(=O)N(Cc1ccc(-c2noc(C(F)(F)F)n2)cc1)C1CC1 [Compound 1.117, N-cyclopropyl-2,2-dimethyl-N-[[4-[5-(trifluoromethyl)-1,2,4-oxadiazol-3-yl]phenyl]methyl]-propanamide]
≥ 80%: pest or weed control at 200 ppm [1] | inhibition of growth at 20 ppm [2] | pest or weed control at 200 ppm [3] | pest or weed control at 200 ppm [4]

COC(C)C(=O)N(Cc1ccc(-c2noc(C(F)(F)F)n2)cc1)OC (centres unmarked) [Compound 1.81, N,2-dimethoxy-N-[[4-[5-(trifluoromethyl)-1,2,4-oxadiazol-3-yl]phenyl]methyl]-propanamide]
≥ 80%: pest or weed control at 200 ppm [1] | inhibition of growth at 20 ppm [2] | pest or weed control at 200 ppm [3] | pest or weed control at 200 ppm [4]

COCC(=O)N(Cc1ccc(-c2noc(C(F)(F)F)n2)cc1)C1CC1 [Compound 1.777, N-cyclopropyl-2-methoxy-N-[[4-[5-(trifluoromethyl)-1,2,4-oxadiazol-3-yl]phenyl]methyl]-acetamide]
≥ 80%: pest or weed control at 200 ppm [1] | inhibition of growth at 20 ppm [2] | pest or weed control at 200 ppm [3] | pest or weed control at 200 ppm [4]

CCCN(Cc1ccc(-c2noc(C(F)(F)F)n2)cc1)C(=O)C(C)C [Compound 1.651, 2-methyl-N-propyl-N-[[4-[5-(trifluoromethyl)-1,2,4-oxadiazol-3-yl]phenyl]methyl]-propanamide]
≥ 80%: pest or weed control at 200 ppm [1] | inhibition of growth at 20 ppm [2] | pest or weed control at 200 ppm [3] | pest or weed control at 200 ppm [4]

CON(Cc1ccc(-c2noc(C(F)(F)F)n2)cn1)C(=O)C1CCCO1 (centres unmarked) [Compound 1.569, N-methoxy-N-[[5-[5-(trifiuoromethyl)-1,2,4-oxadiazol-3-yl]-2-pyridyl]methyl]-tetrahydrofuran-2-carboxamide]
≥ 80%: pest or weed control at 200 ppm [1] | inhibition of growth at 20 ppm [2] | pest or weed control at 200 ppm [3] | pest or weed control at 200 ppm [4]

CCCN(Cc1ccc(-c2noc(C(F)(F)F)n2)cc1)C(=O)CCCOC [Compound 1.662, 4-methoxy-N-propyl-N-[[4-[5-(trifluoromethyl)-1,2,4-oxadiazol-3-yl]phenyl]methyl]-butanamide]
≥ 80%: pest or weed control at 200 ppm [1] | inhibition of growth at 20 ppm [2] | pest or weed control at 200 ppm [3] | pest or weed control at 200 ppm [4]

C=CCN(Cc1ccc(-c2noc(C(F)(F)F)n2)cc1)C(=O)C(C)OC (centres unmarked) [Compound 1.492, N-allyl-2-methoxy-N-[[4-[5-(trifluoromethyl)-1,2,4-oxadiazol-3-yl]phenyl]methyl]-propanamide]
≥ 80%: pest or weed control at 200 ppm [1] | inhibition of growth at 20 ppm [2] | pest or weed control at 200 ppm [3] | pest or weed control at 200 ppm [4]

CON(Cc1ccc(-c2noc(C(F)(F)F)n2)cc1)C(=O)NCC(C)C [Compound 3.13, 3-isobutyl-1-methoxy-1-[[4-[5-(trifluoromethyl)-1,2,4-oxadiazol-3-yl]phenyl]methyl]urea]
≥ 80%: pest or weed control at 200 ppm [1] | inhibition of growth at 20 ppm [2] | pest or weed control at 200 ppm [3] | pest or weed control at 200 ppm [4]

COCCN(Cc1ccc(-c2noc(C(F)(F)F)n2)cc1)C(=O)C1CCCCO1 (centres unmarked) [Compound 1.324, N-(2-methoxyethyl)-N-[[4-[5-(trifluoromethyl)-1,2,4-oxadiazol-3-yl]phenyl]methyl]-tetrahydropyran-2-carboxamide]
≥ 80%: pest or weed control at 200 ppm [1] | inhibition of growth at 20 ppm [2] | pest or weed control at 200 ppm [3] | pest or weed control at 200 ppm [4]

O=C(ON(Cc1ccc(-c2noc(C(F)(F)F)n2)cc1)C(=O)C1CCOC1)C1CCOC1 (centres unmarked) [Compound 1.757, [tetrahydrofuran-3-carbonyl-[[4-[5-(trifluoromethyl)-1,2,4-oxadiazol-3-yl]phenyl]methyl]-amino] tetrahydrofuran-3-carboxylate]
≥ 80%: pest or weed control at 200 ppm [1] | inhibition of growth at 20 ppm [2] | pest or weed control at 200 ppm [3] | pest or weed control at 200 ppm [4]

CCCC(=O)N(CC)Cc1ccc(-c2noc(C(F)(F)F)n2)cc1 [Compound 1.505, N-ethyl-N-[[4-[5-(trifluoromethyl)-1,2,4-oxadiazol-3-yl]phenyl]methyl]-butanamide]
≥ 80%: pest or weed control at 200 ppm [1] | inhibition of growth at 20 ppm [2] | pest or weed control at 200 ppm [3] | pest or weed control at 200 ppm [4]

COCCCC(=O)N(C)Cc1ccc(-c2noc(C(F)(F)F)n2)cc1 [Compound 1.526, 4-methoxy-N-methyl-N-[[4-[5-(trifluoromethyl)-1,2,4-oxadiazol-3-yl]phenyl]methyl]-butanamide]
≥ 80%: pest or weed control at 200 ppm [1] | inhibition of growth at 20 ppm [2] | pest or weed control at 200 ppm [3] | pest or weed control at 200 ppm [4]

C#CCCC(=O)N(CC#C)Cc1ccc(-c2noc(C(F)(F)F)n2)cc1 [Compound 1.154, N-prop-2-ynyl-N-[[4-[5-(trifluoromethyl)-1,2.4-oxadiazol-3-yl]phenyl]methyl]-pent-4-ynamide]
≥ 80%: pest or weed control at 200 ppm [1] | inhibition of growth at 20 ppm [2] | pest or weed control at 200 ppm [3] | pest or weed control at 200 ppm [4]

CCN(Cc1ccc(-c2noc(C(F)(F)F)n2)cc1)C(=O)C1CCC1 [Compound 1.498, N-ethyl-N-[[4-[5-(trifluoromethyl)-1,2,4-oxadiazol-3-yl]phenyl]methyl]-cyclobulane-carboxamide]
≥ 80%: pest or weed control at 200 ppm [1] | inhibition of growth at 20 ppm [2] | pest or weed control at 200 ppm [3] | pest or weed control at 200 ppm [4]

CCC(=O)N(Cc1ccc(-c2noc(C(F)(F)F)n2)cc1)CC1CCCO1 (centres unmarked) [Compound 1.432, N-(tetrahydrofuran-2-ylmethyl)-N-[[4-[5-(trifluoromethyl)-1,2,4-oxadiazol-3-yl]phenyl]methyl]-propanamide]
≥ 80%: pest or weed control at 200 ppm [1] | inhibition of growth at 20 ppm [2] | pest or weed control at 200 ppm [3] | pest or weed control at 200 ppm [4]

CCON(Cc1ccc(-c2noc(C(F)(F)F)n2)cc1)C(=O)C(C)CC (centres unmarked) [Compound 1.622, N-ethoxy-2-methyl-N-[[4-[5-(trifluoromethyl)-1,2,4-oxadiazol-3-yl]phenyl]methyl]-butanamide]
≥ 80%: pest or weed control at 200 ppm [1] | inhibition of growth at 20 ppm [2] | pest or weed control at 200 ppm [3] | pest or weed control at 200 ppm [4]

C=CC(=O)N(Cc1ccc(-c2noc(C(F)(F)F)n2)cc1)C(C)CC (centres unmarked) [Compound 1.387, N-sec-butyl-N-[[4-[5-(trifluoromethyl)-1,2,4-oxadiazol-3-yl]phenyl]methyl]-prop-2-enamide]
≥ 80%: pest or weed control at 200 ppm [1] | inhibition of growth at 20 ppm [2] | pest or weed control at 200 ppm [3] | pest or weed control at 200 ppm [4]
